Measurements taken from patent US10973823B2, “Anti-cancer composition consisting of halofuginone and sesquiterpene lactone compounds of artemisia apiacea and use thereof” (Hong Kong Baptist University, priority 2016, dated 2021).

Assays:
Conditions in all cases: alone or combined, 24 hours
[1] = test system: colon cancer cell HCT-116; experiment: MTT assay, colon cancer cell HCT-116; type: cell-based, Human
Procedure: Human colon cancer cell line HCT-116 was seeded on a 96-well plate, with 100 μl of cell suspension in each well. The culture medium was DMEM supplemented with 10% FBS and 2 mM glutamate. […] 24 hours after adding the compound, the cell survival rate was assessed using the MTT assay, and the combination index (CI) of the combined pharmaceutical of HF and ATS was calculated using the Calcusyn software. Tumor cell survival rate=the OD value of the experimental group/the OD value of the control group×100%

[2] = test system: breast cancer cell MCF-7; experiment: MTT assay, breast cancer cell MCF-7; type: cell-based
Procedure: Breast cancer cell line MCF-7 was seeded on a 96-well plate, with 100 μl of cell suspension in each well. The culture medium was DMEM supplemented with 10% FBS and 2 mM glutamate. […] 24 hours after adding the compound, the cell survival rate was assessed using the MTT assay, and the combination index (CI) of the combined pharmaceutical of HF and ATS was calculated using the Calcusyn software.

[3] = test system: liver cancer cell HepG2; experiment: MTT assay, liver cancer cell HepG2; type: cell-based
Procedure: Liver cancer cell line HepG2 was seeded on a 96-well plate, with 100 μl of cell suspension in each well. The culture medium was DMEM supplemented with 10% FBS and 2 mM glutamate. […] 24 hours after adding the compound, the cell survival rate was assessed using the MTT assay, and the combination index (CI) of the combined pharmaceutical of HF and ATS was calculated using the Calcusyn software.

[4] = test system: gastric cancer cell MGC803; experiment: MTT assay, gastric cancer cell MGC803; type: cell-based
Procedure: Gastric cancer cell line MGC803 was seeded on a 96-well plate, with 100 μl of cell suspension in each well. The culture medium was DMEM supplemented with 10% FBS and 2 mM glutamate. […] 24 hours after adding the compound, the cell survival rate was assessed using the MTT assay, and the combination index (CI) of the combined pharmaceutical of HF and ATS was calculated using the Calcusyn software.

[5] = test system: melanoma cell A375; experiment: MTT assay, melanoma cell A375; type: cell-based
Procedure: Melanoma cell line A375 was seeded on a 96-well plate, with 100 μl of cell suspension in each well. The culture medium was DMEM supplemented with 10% FBS and 2 mM glutamate. […] 24 hours after adding the compound, the cell survival rate was assessed using the MTT assay, and the combination index (CI) of the combined pharmaceutical of HF and ATS was calculated using the Calcusyn software.

[6] = HF 10 nM, ATS/DAT/ASU/ATM 160 μM
[7] = HF 20 nM, ATS/DAT/ASU/ATM 320 μM
[8] = HF 40 nM, ATS/DAT/ASU/ATM 640 μM

SMILES	Cell death rate (%) [1, 6] [%]	Cell death rate (%) [1, 7] [%]	Cell death rate (%) [1, 8] [%]	Cell death rate (%) ([2]; HF 10 nM, lactone 160 μM)	Cell death rate (%) ([2]; HF 20 nM, lactone 320 μM)	Cell death rate (%) ([2]; HF 40 nM, lactone 640 μM)	Cell death rate (%) ([3]; HF 10 nM, lactone 160 μM)	Cell death rate (%) ([3]; HF 20 nM, lactone 320 μM)	Cell death rate (%) ([3]; HF 40 nM, lactone 640 μM)	Cell death rate (%) ([4]; HF 10 nM, lactone 160 μM)	Cell death rate (%) ([4]; HF 20 nM, lactone 320 μM)	Cell death rate (%) ([4]; HF 40 nM, lactone 640 μM)	Cell death rate (%) ([5]; HF 10 nM, lactone 160 μM)	Cell death rate (%) ([5]; HF 20 nM, lactone 320 μM)	Cell death rate (%) ([5]; HF 40 nM, lactone 640 μM)
C[C@@H]1CC[C@H]2[C@@H](C)C(=O)O[C@@H]3O[C@@]4(C)CC[C@@H]1[C@]32OO4 [ATS, Artemisinin]	35.89 ± 3.91	48.31 ± 3.61	54.42 ± 2.44	9.50 ± 0.77	16.50 ± 1.47	33.90 ± 2.00	0.90 ± 0.95	1.60 ± 0.08	6.40 ± 2.71	1.00 ± 3.31	4.60 ± 5.51	40.00 ± 3.18	16.50 ± 4.30	26.30 ± 1.33	46.50 ± 3.57
CO[C@H]1O[C@@H]2O[C@@]3(C)CC[C@H]4[C@H](C)CC[C@@H]([C@H]1C)[C@@]24OO3 [ATM, artemether]	33.17 ± 4.46	46.32 ± 3.45	54.50 ± 2.50												
O=C(CC1NCCCC1O)Cn1cnc2cc(Br)c(Cl)cc2c1=O (centres unmarked) [HF, Halofuginone]	19.41 ± 4.03	33.06 ± 3.32	59.27 ± 0.41	2.00 ± 1.28	3.00 ± 0.55	9.10 ± 1.79	0.70 ± 3.11	1.00 ± 2.06	4.00 ± 2.21	8.10 ± 2.77	20.00 ± 4.18	29.00 ± 3.31	5.70 ± 5.44	17.70 ± 2.82	35.70 ± 4.76
C[C@H]1[C@@H](O)O[C@@H]2O[C@@]3(C)CC[C@H]4[C@H](C)CC[C@@H]1[C@@]24OO3 [DAT, dihydroartemisinin]	36.80 ± 3.33	47.32 ± 3.65	55.57 ± 2.43	8.81 ± 0.83	16.32 ± 1.65	32.59 ± 2.43	0.81 ± 0.83	1.72 ± 0.15	6.59 ± 2.58	1.81 ± 0.83	5.32 ± 1.65	42.59 ± 2.43	16.81 ± 5.83	26.35 ± 1.64	42.55 ± 4.42
C[C@H]1[C@H](OC(=O)CCC(=O)O)O[C@@H]2O[C@@]3(C)CC[C@H]4[C@H](C)CC[C@@H]1[C@@]24OO3 [ASU, artesunate]	35.15 ± 3.45	48.31 ± 3.69	53.52 ± 2.46	9.15 ± 0.92	16.31 ± 1.69	33.57 ± 2.56	0.95 ± 0.72	1.86 ± 0.09	6.57 ± 2.06	1.15 ± 0.92	5.31 ± 1.69	43.57 ± 2.56	16.15 ± 4.90		47.59 ± 3.93
